Data: paper PMC8998746, “Effect of Clinically Used Microtubule Targeting Drugs on Viral Infection and Transport Function” (International Journal of Molecular Sciences, 2022)
Where two headings read alike, the source gives them in different places.

Legend:
Vero cells [1] = assay: Cell viability, CellTiter 96 assay, Vero; conditions: 24 h treatment
Huh-7 Lunet C3 cells [2] = assay: Cell viability, CellTiter 96 assay, Huh-7 Lunet C3; conditions: Huh-7 Lunet C3, 24 h treatment, over 80% cell viability
Vero E6 cells [3] = assay: Cell viability, CellTiter 96 assay, Vero E6; conditions: Vero E6, 24 h treatment
[4] = test system: KBP (kinesin) movement along MTs in AHRTG cells; assay: In cell motility assay with kinesin binding peptide probe (KBP); type: cell-based, human; conditions: for KBP mean displacement, decrease / KBP mean velocity, decrease / KBP mean movement / proportion of transported particles (TM/CM), reduction: AHRTG cells, NOC 2.5 µM, PTX 10 µM; for KBP mean displacement, decrease / KBP mean velocity, decrease: vs control; for KBP mean movement / proportion of transported particles (TM/CM), reduction: vs untreated
Vero cells [5] = conditions: African green monkey, 24 h
Vero E6 cells [6] = conditions: African green monkey, 24 h
[7] = test system: DBP (dynein) movement along MTs in AHRTG cells; assay: In cell motility assay with dynein binding peptide probe (DBP); type: cell-based, human; conditions: for DBP mean displacement, decrease / DBP mean velocity, decrease / DBP mean movement / proportion of transported particles (TM/CM), reduction: NOC 2.5 µM, PTX 10 µM; for DBP mean displacement, decrease / DBP mean velocity, decrease: vs control; for DBP mean movement / proportion of transported particles (TM/CM), reduction: vs untreated
Huh-7 Lunet C3 cells [8] = conditions: human, 24 h
VACV vtag2GFP = type: cell-based, vaccinia virus
ASFV BPP30GFP = type: cell-based, African swine fever virus
[9] = test system: VSV-G-luc (vesicular stomatitis virus); type: cell-based
[10] = test system: SARS-CoV-2 strain NL/2020; assay: microbe, parasite or virus in culture; type: cell-based; conditions: Severe acute respiratory syndrome coronavirus 2; A549-ACE2 cells, 1 h pretreatment, 48 h, optimal dose (PPT 100 nM); read-out: inhibition of SARS-CoV-2 infection

Structure (SMILES) | highest non-toxic concentration (Vero cells [1]) | highest non-toxic concentration (Huh-7 Lunet C3 cells [2]) | highest non-toxic concentration (Vero E6 cells [3]) | highest non-toxic concentration (Vero cells [5]) | highest non-toxic concentration (Vero E6 cells [6]) | highest non-toxic concentration (Huh-7 Lunet C3 cells [8]) | further results
CCCSc1ccc2nc(NC(=O)OC)[nH]c2c1 [ABZ, albendazole] | 25 nM | 1 nM | 25 nM |  |  |  | effect on KBP movement (TM/CM ratio) [4]: very low effect on motion; effect on KBP particle displacement [4]: no significant modification; effect on KBP particle velocity [4]: no significant modification
CC(=O)O[C@H]1C(=O)[C@@]2(C)[C@H]([C@H](OC(=O)c3ccccc3)[C@]3(O)C[C@H](OC(=O)[C@H](O)[C@@H](NC(=O)c4ccccc4)c4ccccc4)C(C)=C1C3(C)C)[C@]1(OC(C)=O)CO[C@@H]1C[C@@H]2O [PTX, paclitaxel] |  |  |  | 25 nM | 25 nM | 5 nM | effect on KBP particle displacement [4]: significantly decreased the displacement of particles; KBP mean displacement, decrease [4]: 16%; KBP mean velocity, decrease [4]: no meaningful changes; KBP mean movement / proportion of transported particles (TM/CM), reduction [4]: 17%; DBP mean displacement, decrease [7]: no alterations; DBP mean velocity, decrease [7]: no alterations; DBP mean movement / proportion of transported particles (TM/CM), reduction [7]: 27%
COC(=O)Nc1nc2ccc(C(=O)c3cccs3)cc2[nH]1 [NOC, nocodazole] |  |  |  |  |  |  | KBP mean displacement, decrease [4]: 54%; KBP mean velocity, decrease [4]: 36%; KBP mean movement / proportion of transported particles (TM/CM), reduction [4]: 68%; DBP mean displacement, decrease [7]: 44%; DBP mean velocity, decrease [7]: 30%; DBP mean movement / proportion of transported particles (TM/CM), reduction [7]: 60%
CO[C@H]1C(=O)[C@]2(C)[C@@H](OC)C[C@H]3OC[C@@]3(OC(C)=O)[C@H]2[C@H](OC(=O)c2ccccc2)[C@]2(O)C[C@H](OC(=O)[C@H](O)[C@@H](NC(=O)OC(C)(C)C)c3ccccc3)C(C)=C1C2(C)C [CTX, cabazitaxel] | 10 nM | 0.01 nM | 25 nM |  |  |  | effect on KBP movement (TM/CM ratio) [4]: affected particle motion
CC(C)(C)c1[nH]cnc1/C=c1\[nH]c(=O)/c(=C/c2ccccc2)[nH]c1=O [PLIN, plinabulin] | 25 nM | 0.5 nM | 25 nM |  |  |  | reduction of VACV (vtag2GFP) viral infection (VACV vtag2GFP): 50%; inhibition of ASFV early infection (BPP30GFP) (ASFV BPP30GFP): 30%
CC[C@]1(O)C[C@H]2CN(CCc3c([nH]c4ccccc34)[C@@](C(=O)OC)(c3cc4c(cc3OC)N(C=O)[C@H]3[C@@](O)(C(=O)OC)[C@H](OC(C)=O)[C@]5(CC)C=CCN6CC[C@]43[C@@H]65)C2)C1 [VCR, vincristine] |  |  |  | 1 nM | 1 nM | 5 nM | 
COc1cc2c(c(OC)c1OC)-c1ccc(OC)c(=O)cc1[C@@H](NC(C)=O)CC2 [COL, colchicine] | 75 nM | 0.2 nM | 25 nM |  |  |  | 
C=C1C[C@@H]2CC[C@@]34C[C@H]5O[C@H]6[C@@H](O3)[C@H]3O[C@H](CC[C@@H]3O[C@H]6[C@H]5O4)CC(=O)C[C@@H]3[C@@H](OC)[C@@H](C[C@H](O)CN)O[C@H]3C[C@H]3O[C@@H](CC[C@@H]1O2)C[C@@H](C)C3=C [ERIB, eribulin] |  |  |  | 100 nM | 10 nM | 0.01 nM | inhibition of ASFV early infection (BPP30GFP) (ASFV BPP30GFP): up to 50%
CC[C@]1(O)C[C@@H]2CN(CCc3c([nH]c4ccccc34)[C@@](C(=O)OC)(c3cc4c(cc3OC)N(C)[C@H]3[C@@](O)(C(N)=O)[C@H](O)[C@]5(CC)C=CCN6CC[C@]43[C@@H]65)C2)C1 [VDS, vindesine] |  |  |  | 100 nM | 100 nM | 0.02 nM | inhibition of ASFV early infection (BPP30GFP) (ASFV BPP30GFP): up to 50%; decrease of VSV infection [9]: 80%
CC(=O)O[C@@]12CO[C@@H]1C[C@H](O)[C@@]1(C)C(=O)[C@H](O)C3=C(C)[C@@H](OC(=O)[C@H](O)[C@@H](NC(=O)OC(C)(C)C)c4ccccc4)C[C@@](O)([C@@H](OC(=O)c4ccccc4)[C@H]21)C3(C)C [DTX, docetaxel] | 10 nM | 0.03 nM | 10 nM |  |  |  | 
COc1cc([C@@H]2c3cc4c(cc3[C@H](O)[C@H]3COC(=O)[C@H]23)OCO4)cc(OC)c1OC [PPT, podophylotoxin] | 50 nM | 0.2 nM | 50 nM |  |  |  | inhibition at 0.1 µM [10]: 60%
COc1ccc2c(c1OC)C(=O)O[C@@H]2[C@H]1c2c(cc3c(c2OC)OCO3)CCN1C [NOS, noscapine] |  |  |  | 100 nM | 100 nM | 100 nM | effect on KBP movement (TM/CM ratio) [4]: no effect on KBP movement
COC(=O)Nc1nc2ccc(C(=O)c3ccccc3)cc2[nH]1 [MBZ, mebendazole] |  |  |  | 10 nM | 10 nM | 5 nM | concentration at which the DBP TM/CM ratio was affected ([7]; dose-response 0.1-10 μM MBZ): > 2.5 µM
CC[C@]1(O)C[C@@H]2CN(CCc3c([nH]c4ccccc34)[C@@](C(=O)OC)(c3cc4c(cc3OC)N(C)[C@H]3[C@@](O)(C(=O)OC)[C@H](OC(C)=O)[C@]5(CC)C=CCN6CC[C@]43[C@@H]65)C2)C1 [VBL, vinblastine] |  |  |  | 25 nM | 5 nM | 0.05 nM | inhibition of ASFV early infection (BPP30GFP) (ASFV BPP30GFP): up to 50%; decrease of VSV infection [9]: 90%
COc1cc2cc(c1Cl)N(C)C(=O)C[C@H](OC(=O)[C@H](C)N(C)C(C)=O)[C@]1(C)O[C@H]1[C@H](C)[C@@H]1C[C@@](O)(NC(=O)O1)[C@H](OC)/C=C/C=C(\C)C2 [MAYT, maytansine] | 25 nM | 0.1 nM | 25 nM |  |  |  | decrease of VSV infection [9]: 40%; effect on KBP movement (TM/CM ratio) [4]: significant reduction of the TM/CM ratio
COC(=O)Nc1nc2ccc(Sc3ccccc3)cc2[nH]1 [FBZ, febendazole] |  |  |  | 75 nM | 50 nM | 1 nM | reduction of VACV (vtag2GFP) viral infection (VACV vtag2GFP): 40%; inhibition of ASFV early infection (BPP30GFP) (ASFV BPP30GFP): 30%
C/C(=C\c1csc(C)n1)[C@@H]1C[C@@H]2O[C@]2(C)CCC[C@H](C)[C@H](O)[C@@H](C)C(=O)C(C)(C)[C@@H](O)CC(=O)N1 [EPO, ixabepilone] |  |  |  | 25 nM | 25 nM | 0.05 nM | 
